Source: patent US4018801A, “Substituted oxirane compounds” (The Dow Chemical Company, priority 1975, dated 1977)

What was measured:
Cephaloascus fragans = assay: Control of fungal plants on nutrient agar; type: cell-based; details: 500 parts by weight per million
Protocol: (§1) Separate acetone compositions containing 100 and 500 parts, respectively, of each of 2-(p-nitrophenyl)- 2-(2,2,2-trichloroethyl)oxirane and 2-(m-nitrophenyl)- 2-(2,2,2-trichloroethyl)oxirane compounds per million parts by weight of ultimate mixture were prepared by dissolving a pre-determined amount of each of the above compounds in acetone to give the desired concentrations. The solutions were dispersed in melted nutrient agar to produce culture media for fungal plants. The agar solutions were poured into petri dishes and allowed to solidify. The solidified agar surface in each petri dish was inoculated with one species of a fungal plant; the plants employed being Staphylococcus aureus, Candida albicans, Trichophton mentagrophytes, Bacillus subtilis, Aspergillus terreus, Candida pelliculosa, Pullularia pullulans, Mycobacterium phlei, Cephaloascus fragans and Aerobacter aerogenes.
(§2) The inoculation was carried out by applying droplets of a solution containing the fungal plants to the agar surfaces. The inoculated petri dishes were then incubated for an appropriate period of time and under conditions conducive to the growth of the fungal plants involved.
(§3) After incubation, the petri dishes were examined to determine the degree of control of the fungal plants.

Candida pelliculosa = assay: Control of fungal plants on nutrient agar; type: cell-based; details: 500 parts by weight per million
Protocol: as §1, §2, §3

Aspergillus terreus = assay: Control of fungal plants on nutrient agar; type: cell-based; details: 500 parts by weight per million
Protocol: as §1, §2, §3

Staphylococcus aureus = assay: Control of fungal plants on nutrient agar; type: cell-based; details: 500 parts by weight per million
Protocol: as §1, §2, §3

[1] = system: Trichophton mentagrophytes; assay: Control of fungal plants on nutrient agar; type: cell-based; details: 500 parts by weight per million
Protocol: as §1, §2, §3

Mycobacterium phlei = assay: Control of fungal plants on nutrient agar; type: cell-based; details: 500 parts by weight per million
Protocol: as §1, §2, §3

Bacillus subtilis = assay: Control of fungal plants on nutrient agar; type: cell-based; details: 500 parts by weight per million
Protocol: as §1, §2, §3

Candida albicans = assay: Control of fungal plants on nutrient agar; type: cell-based; details: 500 parts by weight per million
Protocol: as §1, §2, §3

Pullularia pullulans = assay: Control of fungal plants on nutrient agar; type: cell-based; details: 500 parts by weight per million
Protocol: as §1, §2, §3

Cheat Grass = assay: Pre-emergent control of seed germination, soil drench; type: in vivo; details: 5.0 pounds per surface acre, about 2 weeks
Description: (§4) Four parts by weight of the compound, 0.08 part of sorbitan trioleate (Span 85), and 0.02 part of a sorbitan monooleate polyoxyethylene derivative (Tween 80) are dipersed in 40 milliliters of acetone to produce a concentrate composition in the form of a water-dispersible liquid containing the predetermined oxirane compound as the sole active agent.
(§5) A portion of each of these concentrate compositions were separately dispersed in portions of water to provide aqueous compositions, containing 0.44 pound of the oxirane compound per 100 gallons of ultimate aqueous mixture.
The aqueous compositions were then employed for the treatment of seed beds of good agricultural soil which had been prepared and seeded with the seeds of various grass species and broadleaf plants. The grass species included white winter wheat, cultured rice, pigweeds, crabgrass, cheat grass, wild oats, Johnson grass, barnyard grass and yellow foxtail; and the broadleaf plants included corn. In the treating operations, a predetermined quantity of each of the compositions was applied to separate seedbeds as a soil drench at a rate of about 0.43 acre inch of aqueous composition per acre. The quantities were controlled to supply a substantial uniform dosage in a seedbed equivalent to 1.0, 2.0 and 5.0 pounds of the oxirane compound per acre. […]

Barnyard Grass = assay: as above; type: in vivo; details: Barnyard Grass, about 2 weeks
Description: as §4, §5
(§6) The aqueous compositions were then employed for the treatment of seed beds of good agricultural soil which had been prepared and seeded with the seeds of various grass species and broadleaf plants. The grass species included white winter wheat, cultured rice, pigweeds, crabgrass, cheat grass, wild oats, Johnson grass, barnyard grass and yellow foxtail; and the broadleaf plants included corn. In the treating operations, a predetermined quantity of each of the compositions was applied to separate seedbeds as a soil drench at a rate of about 0.43 acre inch of aqueous composition per acre. The quantities were controlled to supply a substantial uniform dosage in a seedbed equivalent to 1.0, 2.0 and 5.0 pounds of the oxirane compound per acre. These dosages correspond, respectively, to a concentration, within the soil depth penetrated of about 1.6, 3.2 and 8.0 parts by weight of the oxirane compound per million parts by weight of soil. Other seedbeds were similarly seeded with the named plant species but were left untreated to serve as checks.
(§7) After about 2 weeks the seedbeds were examined to ascertain what control of the growth of seeds had been obtained.
(§8) were prepared as in Example 32 and similarly employed for the pre-emergencetreatment of various plant species.
(§9) An aqueous composition containing 2-(α,α,α -trifluoro-m-tolyl)-2-(2,2,2-trichloroethyl)oxirane was prepared as described in Example 32. The composition was then employed according to the procedures of Example 32 except that lower concentrations of the oxirane compound were employed in the composition.
(§10) The percent control of the various plant species at the employed dosage rate of the 2-(α,α,α-trifluoro-m-tolyl)- 2-(2,2,2-trichloroethyl) supplied by the composition is set forth in the following Table IV.

Wild Oats = assay: as above; type: in vivo; details: Wild Oats, about 2 weeks
Description: as §4, §5, §6, §7, §8, §9, §10

Yellow Foxtail = assay: as above; type: in vivo; details: Yellow Foxtail, 1.0 pounds per surface acre, about 2 weeks
Description: as §4, §5, §6, §7, §8, §9, §10

Pigweeds = assay: as above; type: in vivo; details: Pig Weeds, about 2 weeks
Description: as §4, §5, §6, §7, §8, §9, §10

White Winter Wheat = assay: as above; type: in vivo; details: about 2 weeks
Description: as §4, §5, §6, §7, §9, §10

Cultured Rice = assay: as above; type: in vivo; details: about 2 weeks
Description: as §4, §5, §6, §7, §9, §10

Crabgrass = assay: as above; type: in vivo; details: Crabgrass, about 2 weeks
Description: as §4, §5, §6, §7, §8
(§11) Separate aqueous compositions containing the 2-(m-chlorophenyl)-2-(2,2,2-trichloroethyl)oxirane (Cmpd. A) and 2-(m-bromophenyl)-2-(2,2,2-trichloroethyl)oxirane (Cmpd. C) compounds of the present invention were prepared as in Example 32 for comparative per-emergence herbicide tests against noxious grass species with the known 2 -(p-chlorophenyl)-2-(2,2,2-trichloroethyl)oxirane (Cmpd. B) compound and 2-(p-bromophenyl)-2-(2,2,2-trichloroethyl)oxirane (Cmpd. D). The pre-emergence tests were conducted in Example 32 and the results of such tests are set forth below in Table III.
as §9, §10

Johnson Grass = assay: as above; type: in vivo; details: Johnson Grass, about 2 weeks
Description: as §4, §5, §6, §7, §8, §11, §9, §10

Corn = assay: as above; type: in vivo; details: about 2 weeks
Description: as §4, §5, §6
After about 2 weeks the seedbeds were examined to ascertain what control of the growth of seeds had been obtained. […]
as §9, §10

O=[N+]([O-])c1cccc(C2(CC(Cl)(Cl)Cl)CO2)c1 (centres unmarked) [Example 2, 2-(m-nitrophenyl)-2-(2,2,2-trichloroethyl)oxirane]
80%: Percent Pre-Emergent Control of Seed Germination (Wild Oats; 5.0 pounds per surface acre)
50%: Percent Pre-Emergent Control of Seed Germination (Barnyard Grass; 1.0 pounds per surface acre) | Percent Pre-Emergent Control of Seed Germination (Barnyard Grass; 2.0 pounds per surface acre) | Percent Pre-Emergent Control of Seed Germination (Wild Oats; 2.0 pounds per surface acre) | Percent Pre-Emergent Control of Seed Germination (White Winter Wheat; 2.0 pounds per surface acre) | Percent Pre-Emergent Control of Seed Germination (Corn; 2.0 pounds per surface acre)
0%: Percent Pre-Emergent Control of Seed Germination (Corn; 5.0 pounds per surface acre)
40%: Percent Pre-Emergent Control of Seed Germination (Wild Oats; 1.0 pounds per surface acre)
100%: Percent Pre-Emergent Control of Seed Germination (Cheat Grass) | Percent Pre-Emergent Control of Seed Germination (Yellow Foxtail) | Percent Pre-Emergent Control of Seed Germination (Cultured Rice; 1.0 pounds per surface acre) | Percent Pre-Emergent Control of Seed Germination (Cultured Rice; 5.0 pounds per surface acre) | Percent Pre-Emergent Control of Seed Germination (Crabgrass; 2.0 pounds per surface acre) | Percent Pre-Emergent Control of Seed Germination (Crabgrass; 5.0 pounds per surface acre) | Percent Pre-Emergent Control of Seed Germination (Corn; 1.0 pounds per surface acre)
complete control and kill: degree of control of the fungal plants (Cephaloascus fragans) | degree of control of the fungal plants (Candida pelliculosa) | degree of control of the fungal plants (Aspergillus terreus) | degree of control of the fungal plants (Staphylococcus aureus) | degree of control of the fungal plants [1] | degree of control of the fungal plants (Mycobacterium phlei) | degree of control of the fungal plants (Bacillus subtilis) | degree of control of the fungal plants (Candida albicans) | degree of control of the fungal plants (Pullularia pullulans)
70%: Percent Pre-Emergent Control of Seed Germination (Johnson Grass; 1.0 pounds per surface acre)
95%: Percent Pre-Emergent Control of Seed Germination (Barnyard Grass; 5.0 pounds per surface acre) | Percent Pre-Emergent Control of Seed Germination (Pigweeds; 2.0 pounds per surface acre) | Percent Pre-Emergent Control of Seed Germination (Pigweeds; 5.0 pounds per surface acre) | Percent Pre-Emergent Control of Seed Germination (White Winter Wheat; 5.0 pounds per surface acre) | Percent Pre-Emergent Control of Seed Germination (Cultured Rice; 2.0 pounds per surface acre) | Percent Pre-Emergent Control of Seed Germination (Crabgrass; 1.0 pounds per surface acre) | Percent Pre-Emergent Control of Seed Germination (Johnson Grass; 5.0 pounds per surface acre)
90%: Percent Pre-Emergent Control of Seed Germination (White Winter Wheat; 1.0 pounds per surface acre)
85%: Percent Pre-Emergent Control of Seed Germination (Pigweeds; 1.0 pounds per surface acre) | Percent Pre-Emergent Control of Seed Germination (Johnson Grass; 2.0 pounds per surface acre)
